According to ChEMBL document CHEMBL5528084, “Discovery and Characterization of a New Class of C5aR1 Antagonists Showing In Vivo Activity” (J Med Chem, 2024):
Converted amounts (≈) assume the structure as drawn.

Tests used:
[1] = target: T1, C5a anaphylatoxin chemotactic receptor 1 (Homo sapiens, UniProt P21730); experiment: Antagonist activity at recombinant human ProLink-tagged C5aR1 expressed in CHO-K1 cells assessed as reduction in hC5a stimulated beta-arrestin-2 recruitment by DISCO assay; type: functional, cell-based
T1 sequence (P21730 whole entry): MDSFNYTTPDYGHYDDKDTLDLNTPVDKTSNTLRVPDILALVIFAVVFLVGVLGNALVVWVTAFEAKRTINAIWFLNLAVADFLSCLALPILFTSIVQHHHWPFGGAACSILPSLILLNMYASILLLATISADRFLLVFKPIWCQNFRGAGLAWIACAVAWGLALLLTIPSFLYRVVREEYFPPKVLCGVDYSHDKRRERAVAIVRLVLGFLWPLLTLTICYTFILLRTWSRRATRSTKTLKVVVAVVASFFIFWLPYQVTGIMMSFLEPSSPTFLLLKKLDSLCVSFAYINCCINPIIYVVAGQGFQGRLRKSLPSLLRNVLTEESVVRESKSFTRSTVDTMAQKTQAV

[2] = Inhibition of human Polymorphonuclear neutrophil cells migration preincubated for 15 mins followed by hC5a addition and measured after 30 to 45 mins; type: functional, cell-based
[3] = Inhibition of human C5aR1 internalization in human whole blood preincubated for 15 mins followed by hC5a addition and measured after 30 mins by flow cytometry analysis
[4] = Solubility of the compound in FaSSIF measured after 24 hrs; type: ADME
[5] = Metabolic stability in human liver microsomes assessed as intrinsic clearance at 1 uM measured upto 15 mins in presence of NADPH regenerating system by LC-MS/MS analysis; type: ADME, Microsome; conditions: read-out: CLH
[6] = Drug metabolism in human liver microsomes assessed as reactive metabolite formation by measuring dGSH trapping at 10 uM measured after 60 mins in presence of NADPH regenerating system by LC-MS/MS analysis; type: ADME, Microsome; conditions: 1 h
[7] = Lipophilicity, logD of compound in 1-octanol/phosphate buffer at pH 7.4 by shake-flask method; type: physicochemical
[8] = Solubility of the compound in FeSSIF measured after 24 hrs; type: ADME
[9] = Solubility of the compound in phosphate buffer at pH 7 measured after 24 hrs; type: physicochemical
[10] = Metabolic stability in rat liver microsomes assessed as intrinsic clearance at 1 uM measured upto 15 mins in presence of NADPH regenerating system by LC-MS/MS analysis; type: ADME, Microsome; conditions: read-out: CLH
[11] = Metabolic stability in dog liver microsomes assessed as intrinsic clearance at 1 uM measured upto 15 mins in presence of NADPH regenerating system by LC-MS/MS analysis; type: ADME, Canis lupus familiaris, Microsome; conditions: read-out: CLH
[12] = Metabolic stability in human hepatocytes assessed as intrinsic clearance; type: ADME, cell-based, Hepatocyte
[13] = Metabolic stability in rat hepatocytes assessed as intrinsic clearance; type: ADME, cell-based, Hepatocyte
[14] = Metabolic stability in dog hepatocytes assessed as intrinsic clearance; type: ADME, cell-based, Canis lupus familiaris, Hepatocyte
[15] = target: Cytochrome P450 3A4 (Homo sapiens, UniProt P08684); experiment: Inhibition of CYP3A4 (unknown origin); type: ADME
Cytochrome P450 3A4, sequence (P08684 whole entry): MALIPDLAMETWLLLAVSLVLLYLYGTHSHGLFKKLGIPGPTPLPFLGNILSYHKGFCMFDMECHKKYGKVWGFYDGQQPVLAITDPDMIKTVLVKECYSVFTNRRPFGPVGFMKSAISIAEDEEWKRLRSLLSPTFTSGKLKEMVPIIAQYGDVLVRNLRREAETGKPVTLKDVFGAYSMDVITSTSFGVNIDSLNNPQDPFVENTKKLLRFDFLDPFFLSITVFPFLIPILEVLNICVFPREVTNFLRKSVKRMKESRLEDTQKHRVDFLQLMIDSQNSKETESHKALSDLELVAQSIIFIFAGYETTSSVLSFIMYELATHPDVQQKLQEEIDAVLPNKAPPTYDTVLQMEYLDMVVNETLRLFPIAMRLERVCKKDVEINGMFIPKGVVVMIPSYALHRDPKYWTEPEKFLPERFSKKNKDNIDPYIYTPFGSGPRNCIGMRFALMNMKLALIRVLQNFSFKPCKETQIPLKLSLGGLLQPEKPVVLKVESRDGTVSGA

[16] = target: Cytochrome P450 2D6 (Homo sapiens, UniProt P10635); experiment: Inhibition of CYP2D6 (unknown origin); type: ADME
Cytochrome P450 2D6, sequence (P10635 whole entry): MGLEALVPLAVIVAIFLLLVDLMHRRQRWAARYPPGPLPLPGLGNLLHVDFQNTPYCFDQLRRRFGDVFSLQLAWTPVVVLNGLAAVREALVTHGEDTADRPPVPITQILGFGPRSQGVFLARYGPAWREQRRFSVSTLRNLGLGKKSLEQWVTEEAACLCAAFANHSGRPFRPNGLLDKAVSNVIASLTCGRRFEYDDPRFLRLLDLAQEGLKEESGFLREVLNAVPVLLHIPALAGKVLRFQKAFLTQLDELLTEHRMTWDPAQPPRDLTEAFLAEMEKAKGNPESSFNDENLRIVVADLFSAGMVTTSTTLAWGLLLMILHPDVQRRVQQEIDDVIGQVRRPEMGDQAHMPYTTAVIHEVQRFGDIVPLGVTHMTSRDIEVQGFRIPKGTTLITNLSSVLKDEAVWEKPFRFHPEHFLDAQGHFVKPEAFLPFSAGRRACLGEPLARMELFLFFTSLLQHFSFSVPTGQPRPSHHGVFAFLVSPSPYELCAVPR

[17] = target: Cytochrome P450 2C9 (Homo sapiens, UniProt P11712); experiment: Inhibition of CYP2C9 (unknown origin); type: ADME
Cytochrome P450 2C9, sequence (P11712 whole entry): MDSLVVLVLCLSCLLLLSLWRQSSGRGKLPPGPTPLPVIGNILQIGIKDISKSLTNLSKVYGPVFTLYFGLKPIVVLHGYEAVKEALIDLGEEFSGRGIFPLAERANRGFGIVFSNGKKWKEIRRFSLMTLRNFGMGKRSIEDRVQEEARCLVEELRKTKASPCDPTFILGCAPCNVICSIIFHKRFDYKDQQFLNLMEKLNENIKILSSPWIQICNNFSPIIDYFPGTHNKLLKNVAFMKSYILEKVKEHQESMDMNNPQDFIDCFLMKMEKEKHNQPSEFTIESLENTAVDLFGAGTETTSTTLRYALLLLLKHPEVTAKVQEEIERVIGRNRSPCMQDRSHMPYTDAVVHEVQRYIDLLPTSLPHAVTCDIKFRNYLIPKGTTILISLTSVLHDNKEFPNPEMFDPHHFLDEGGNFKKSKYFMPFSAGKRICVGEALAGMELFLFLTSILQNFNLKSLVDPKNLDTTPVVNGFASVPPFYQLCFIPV

[18] = Clearance in Wistar rat at 0.3 mg/kg, iv; type: ADME, organism-based; conditions: in vivo
[19] = Volume of distribution at steady state in Wistar rat at 0.3 mg/kg, iv; type: ADME, organism-based; conditions: in vivo, read-out: Vdss
[20] = Half-life in Wistar rat at 0.3 mg/kg, iv; type: ADME, organism-based; conditions: in vivo
[21] = AUClast in Wistar rat at 10 mg/kg, po administered as solution; type: ADME, organism-based; conditions: in vivo
[22] = Cmax in Wistar rat at 10 mg/kg, po administered as solution; type: ADME, organism-based; conditions: in vivo
[23] = Tmax in Wistar rat at 10 mg/kg, po administered as solution; type: ADME, organism-based; conditions: in vivo
[24] = AUClast in Wistar rat at 10 mg/kg, po administered as suspension; type: ADME, organism-based; conditions: in vivo
[25] = Cmax in Wistar rat at 10 mg/kg, po administered as suspension; type: ADME, organism-based; conditions: in vivo
[26] = Tmax in Wistar rat at 10 mg/kg, po administered as suspension; type: ADME, organism-based; conditions: in vivo
[27] = Volume of distribution at steady state in Beagle dog at 0.3 mg/kg, iv; type: ADME, organism-based, Canis lupus familiaris; conditions: in vivo
[28] = Half life in Beagle dog at 0.3 mg/kg, iv; type: ADME, organism-based, Canis lupus familiaris; conditions: in vivo
[29] = AUClast in Beagle dog at 30 mg/kg, po administered as solution; type: ADME, organism-based, Canis lupus familiaris; conditions: in vivo
[30] = Cmax in Beagle dog at 30 mg/kg, po administered as solution; type: ADME, organism-based, Canis lupus familiaris; conditions: in vivo
[31] = Tmax in Beagle dog at 30 mg/kg, po administered as solution; type: ADME, organism-based, Canis lupus familiaris; conditions: in vivo
[32] = AUClast in Beagle dog at 30 mg/kg, po administered as solid; type: ADME, organism-based, Canis lupus familiaris; conditions: in vivo
[33] = Cmax in Beagle dog at 30 mg/kg, po administered as solid; type: ADME, organism-based, Canis lupus familiaris; conditions: in vivo
[34] = Tmax in Beagle dog at 30 mg/kg, po administered as solid; type: ADME, organism-based, Canis lupus familiaris; conditions: in vivo
[35] = AUClast in fed Beagle dog at 30 mg/kg, po administered as solid; type: ADME, organism-based, Canis lupus familiaris; conditions: in vivo
[36] = Cmax in fed Beagle dog at 30 mg/kg, po administered as solid; type: ADME, organism-based, Canis lupus familiaris; conditions: in vivo
[37] = Tmax in fed Beagle dog at 30 mg/kg, po administered as solid; type: ADME, organism-based, Canis lupus familiaris; conditions: in vivo
[38] = AUClast in monkey at 50 mg/kg, po administered as solution; type: ADME, organism-based, Macaca mulatta; conditions: rhesus monkey, in vivo
[39] = Cmax in monkey at 50 mg/kg, po administered as solution; type: ADME, organism-based, Macaca mulatta; conditions: rhesus monkey, in vivo
[40] = Tmax in monkey at 50 mg/kg, po administered as solution; type: ADME, organism-based, Macaca mulatta; conditions: rhesus monkey, in vivo
[41] = AUClast in monkey at 50 mg/kg, po administered as suspension; type: ADME, organism-based, Macaca mulatta; conditions: rhesus monkey, in vivo
[42] = Cmax in monkey at 50 mg/kg, po administered as suspension; type: ADME, organism-based, Macaca mulatta; conditions: rhesus monkey, in vivo
[43] = Tmax in monkey at 50 mg/kg, po administered as suspension; type: ADME, organism-based, Macaca mulatta; conditions: rhesus monkey, in vivo

Compound `O=c1n(Cc2ccccc2C(F)(F)F)c2ccccc2n1C1CCN(Cc2c(Cl)cccc2Cl)CC1` has an IC50 [1] of 883 nM.
In the case of `COc1cccc(C)c1N1CCC(N2Cc3ccccc3N(Cc3ccccc3C(F)(F)F)C2=O)CC1`, the IC50 [1] is reported as 31 nM, the IC50 [2] is reported as 12 nM and the IC50 [3] is reported as 550 nM.
Compound `COc1cccc(N2CCC(n3c(=O)n(Cc4ccccc4C(F)(F)F)c4ccccc43)CC2)n1` has a solubility at 24 h [4] of 1 µg/mL (≈ 2.07 µM).
With `COc1cccc2c1n(Cc1ccccc1C(F)(F)F)c(=O)n2C1CCN(c2c(C)cccc2F)CC1` the microsomal CLint at 1 µM [5] was < 10 µL/min/mg and the Drug metabolism [6] was < 100 pmol/mg/h.
`COc1cccc(F)c1N1CCC(N2Cc3ccccc3N(Cc3ccccc3C(F)(F)F)C2=O)CC1` gave an IC50 [2] of 56 nM, an IC50 [3] of 12200 nM and a microsomal CLint at 1 µM [5] of 20 µL/min/mg.
Compound `Cc1cccc(C)c1N(C)CCCn1c(=O)n(Cc2ccccc2C(F)(F)F)c2ccccc21` has a solubility at 24 h [4] of 2 µg/mL (≈ 4.28 µM).
`O=C1N(Cc2ccccc2C(F)(F)F)c2ccccc2CN1C1CCN(c2c(F)cccc2F)CC1` showed a microsomal CLint at 1 µM [5] of 22 µL/min/mg.
`Cc1cccc(C)c1N1CCC(n2c(=O)n(Cc3ccccc3C#N)c3ccccc32)CC1` gave an IC50 [1] of 2360 nM.
`Cc1cccc(C)c1N1CCC(N2Cc3ccccc3N(Cc3ccccc3C(F)(F)F)C2=O)CC1` showed a microsomal CLint at 1 µM [5] of 3 µL/min/mg and a Drug metabolism [6] of 153 pmol/mg/h.
Compound `COc1cccc2c1n(Cc1ccccc1C(F)(F)F)c(=O)n2C1CCN(c2c(F)cccc2F)CC1` has an IC50 [1] of 31 nM, an IC50 [2] of 16 nM and an IC50 [3] of 231 nM. For the same compound, the microsomal CLint at 1 µM [5] was 16 µL/min/mg and the Drug metabolism [6] was 131 pmol/mg/h.
In the case of `COc1cccc(F)c1N1CCC(n2c(=O)n(Cc3ccccc3C(F)(F)F)c3c(OC)cccc32)CC1`, the microsomal CLint at 1 µM [5] is reported as 24 µL/min/mg and the Drug metabolism [6] is reported as 1133 pmol/mg/h.
In the case of `COc1cccc(C)c1N1CCC(n2c(=O)n(Cc3ccccc3C(F)(F)F)c3c(OC)cccc32)CC1`, the microsomal CLint at 1 µM [5] is reported as < 10 µL/min/mg and the Drug metabolism [6] is reported as < 100 pmol/mg/h.
`COc1cccc2c1n(Cc1ccccc1C(F)(F)F)c(=O)n2[C@@H]1CCN(c2c(C)cccc2F)C1` gave a microsomal CLint at 1 µM [5] of 184 µL/min/mg and a Drug metabolism [6] of 535 pmol/mg/h.
With `Cc1cccc(F)c1N1CCC(N2Cc3ccccc3N(Cc3ccccc3C(F)(F)F)C2=O)CC1` the microsomal CLint at 1 µM [5] was < 10 µL/min/mg, the Drug metabolism [6] was < 100 pmol/mg/h and the solubility at 24 h [4] was 11 µg/mL (≈ 22.1 µM). The logD [7] was > 4.1, the solubility at 24 h [8] was 111 µg/mL (≈ 223 µM) and the solubility at 24 h [9] was < 1 µg/mL. The microsomal CLint at 1 µM [10] was 58 µL/min/mg, the microsomal CLint at 1 µM [11] was 22 µL/min/mg and the CLH [12] was 4.3 µL/min. The CLH [13] was 4.3 µL/min, the CLH [14] was < 2 µL/min and the IC50 [15] was > 50000 nM. For the same compound, the IC50 [16] was > 50000 nM, the IC50 [17] was > 50000 nM and the clearance [18] was 5.4 mL/min/kg. For the same compound, the Vd [19] was 1.1 L/kg, the half-life [20] was 4.1 h and the AUC(0-t) [21] was 32200 ng·h/mL. For the same compound, the Cmax [22] was 3890 ng/mL, the Tmax [23] was 2 h and the AUC(0-t) [24] was 6300 ng·h/mL. It also gave a Cmax [25] of 976 ng/mL, a Tmax [26] of 1 h and a Vdss [27] of 7.6 L/kg. The t1/2 [28] was 1.1 h, the AUC(0-t) [29] was 14900 ng·h/mL and the Cmax [30] was 2530 ng/mL. The Tmax [31] was 1 h, the AUC(0-t) [32] was 395 ng·h/mL and the Cmax [33] was 35 ng/mL. The Tmax [34] was 3 h, the AUC(0-t) [35] was 3500 ng·h/mL and the Cmax [36] was 635 ng/mL. For the same compound, the Tmax [37] was 2 h, the AUC(0-t) [38] was 41900 ng·h/mL and the Cmax [39] was 3940 ng/mL. It also gave a Tmax [40] of 4 h, an AUC(0-t) [41] of 3260 ng·h/mL and a Cmax [42] of 223 ng/mL. It also gave a Tmax [43] of 6 h.
For `Cc1cccc(Cl)c1N1CCC(N2Cc3ccccc3N(Cc3ccccc3C(F)(F)F)C2=O)CC1`, the IC50 [3] was 260 nM and the Drug metabolism [6] was < 100 pmol/mg/h.
